Data from the NIST ThermoML archive (doi:10.1021/je800110r).
Several values for one entry are separate records, joined by “and”; a condition that tells them apart may be missing. Equal values may be shown once. ± gives the expanded uncertainty stated by the source.

Settings: Liquid, Vibrating tube method

CCCCCCCCCC [decane]
Settings | mass density
313.14 K, 33167 kPa | 739.6 ± 2.1 kg/m3
313.14 K, 33192 kPa | 739.6 ± 2.1 kg/m3
313.14 K, 33228 kPa | 739.6 ± 2.1 kg/m3
313.14 K, 33249 kPa | 739.6 ± 2.1 kg/m3
313.14 K, 33282 kPa | 739.6 ± 2.1 kg/m3
313.14 K, 33310 kPa | 739.6 ± 2.1 kg/m3
313.14 K, 33326 kPa | 739.8 ± 2.1 kg/m3
313.14 K, 33356 kPa | 739.6 ± 2.1 kg/m3
313.14 K, 33377 kPa | 739.6 ± 2.1 kg/m3
313.14 K, 33399 kPa | 739.8 ± 2.1 kg/m3
313.14 K, 33423 kPa | 739.6 ± 2.1 kg/m3
313.14 K, 33447 kPa | 739.8 ± 2.1 kg/m3
313.14 K, 33472 kPa | 739.7 ± 2.1 kg/m3
313.14 K, 33490 kPa | 739.8 ± 2.1 kg/m3
313.14 K, 33518 kPa | 739.7 ± 2.1 kg/m3
313.14 K, 33536 kPa | 739.8 ± 2.1 kg/m3
313.14 K, 33561 kPa | 739.7 ± 2.1 kg/m3
313.14 K, 33582 kPa | 739.8 ± 2.1 kg/m3
313.14 K, 33604 kPa | 739.9 ± 2.1 kg/m3
313.14 K, 33629 kPa | 739.9 ± 2.1 kg/m3
313.14 K, 33657 kPa | 740 ± 2.1 kg/m3
313.14 K, 33682 kPa | 739.9 ± 2.1 kg/m3
313.14 K, 33707 kPa | 739.8 ± 2.1 kg/m3
313.14 K, 33726 kPa | 739.8 ± 2.1 kg/m3
313.14 K, 33748 kPa | 739.9 ± 2.1 kg/m3
313.14 K, 33766 kPa | 739.6 ± 2.1 kg/m3
313.14 K, 33782 kPa | 739.9 ± 2.1 kg/m3
313.14 K, 33804 kPa | 740 ± 2.1 kg/m3
313.14 K, 33832 kPa | 740 ± 2.1 kg/m3
313.14 K, 33858 kPa | 740 ± 2.1 kg/m3
313.14 K, 33880 kPa | 740 ± 2.1 kg/m3
313.14 K, 33906 kPa | 740.1 ± 2.1 kg/m3
313.14 K, 33924 kPa | 740.1 ± 2.1 kg/m3
313.14 K, 33950 kPa | 740 ± 2.1 kg/m3
313.14 K, 33978 kPa | 740.2 ± 2.1 kg/m3
313.14 K, 33997 kPa | 740.1 ± 2.1 kg/m3
313.14 K, 34023 kPa | 740.1 ± 2.1 kg/m3
313.14 K, 34043 kPa | 740.1 ± 2.1 kg/m3
313.14 K, 34066 kPa | 740.1 ± 2.1 kg/m3
313.14 K, 34082 kPa | 740.2 ± 2.1 kg/m3
313.14 K, 34105 kPa | 740.2 ± 2.1 kg/m3
313.14 K, 34131 kPa | 740.1 ± 2.1 kg/m3
313.14 K, 34158 kPa | 740.3 ± 2.1 kg/m3
313.14 K, 34181 kPa | 740.1 ± 2.1 kg/m3
313.14 K, 34211 kPa | 740.2 ± 2.1 kg/m3
313.14 K, 34231 kPa | 740.2 ± 2.1 kg/m3
313.14 K, 34264 kPa | 740.2 ± 2.1 kg/m3
313.14 K, 34281 kPa | 740.2 ± 2.1 kg/m3
313.14 K, 34305 kPa | 740.2 ± 2.1 kg/m3
313.14 K, 34333 kPa | 740.3 ± 2.1 kg/m3
313.14 K, 34358 kPa | 740.4 ± 2.1 kg/m3
313.14 K, 34391 kPa | 740.4 ± 2.1 kg/m3
313.14 K, 34414 kPa | 740.4 ± 2.1 kg/m3
313.14 K, 34437 kPa | 740.4 ± 2.1 kg/m3
313.14 K, 34466 kPa | 740.4 ± 2.1 kg/m3
313.14 K, 34503 kPa | 740.5 ± 2.1 kg/m3
313.14 K, 34520 kPa | 740.4 ± 2.1 kg/m3
313.14 K, 34543 kPa | 740.4 ± 2.1 kg/m3
313.14 K, 34560 kPa | 740.5 ± 2.1 kg/m3
313.14 K, 34566 kPa | 740.4 ± 2.1 kg/m3
313.14 K, 34568 kPa | 740.5 ± 2.1 kg/m3
313.14 K, 34571 kPa | 740.4 ± 2.1 kg/m3 and 740.5 ± 2.1 kg/m3
313.15 K, 1010 kPa | 715.4 ± 2 kg/m3
313.15 K, 1032 kPa | 715.4 ± 2 kg/m3
313.15 K, 1055 kPa | 715.5 ± 2 kg/m3
313.15 K, 1082 kPa | 715.5 ± 2 kg/m3
313.15 K, 1102 kPa | 715.4 ± 2 kg/m3
313.15 K, 1122 kPa | 715.5 ± 2 kg/m3
313.15 K, 1147 kPa | 715.6 ± 2 kg/m3
313.15 K, 1182 kPa | 715.5 ± 2 kg/m3
313.15 K, 1217 kPa | 715.7 ± 2 kg/m3
313.15 K, 1254 kPa | 715.6 ± 2 kg/m3
313.15 K, 3801 kPa | 717.9 ± 2 kg/m3
313.15 K, 6798 kPa | 720.3 ± 2 kg/m3
313.15 K, 6849 kPa | 720.5 ± 2 kg/m3
313.15 K, 6918 kPa | 720.6 ± 2 kg/m3
313.15 K, 6929 kPa | 720.5 ± 2 kg/m3
313.15 K, 7976 kPa | 721.4 ± 2 kg/m3
313.15 K, 7995 kPa | 721.4 ± 2 kg/m3
313.15 K, 8013 kPa | 721.4 ± 2 kg/m3
313.15 K, 8034 kPa | 721.4 ± 2 kg/m3
313.15 K, 8045 kPa | 721.4 ± 2 kg/m3
313.15 K, 8059 kPa | 721.4 ± 2 kg/m3
313.15 K, 8073 kPa | 721.5 ± 2 kg/m3
313.15 K, 8087 kPa | 721.4 ± 2 kg/m3
313.15 K, 8102 kPa | 721.4 ± 2 kg/m3
313.15 K, 8113 kPa | 721.4 ± 2 kg/m3
313.15 K, 8129 kPa | 721.5 ± 2 kg/m3
313.15 K, 8649 kPa | 721.9 ± 2 kg/m3
313.15 K, 8666 kPa | 721.9 ± 2 kg/m3
313.15 K, 8707 kPa | 721.7 ± 2 kg/m3
313.15 K, 15697 kPa | 727.3 ± 2 kg/m3
313.15 K, 15727 kPa | 727.5 ± 2 kg/m3
313.15 K, 15757 kPa | 727.3 ± 2 kg/m3
313.15 K, 15781 kPa | 727.5 ± 2 kg/m3
313.15 K, 15816 kPa | 727.6 ± 2 kg/m3
313.15 K, 15846 kPa | 727.6 ± 2 kg/m3
313.15 K, 15873 kPa | 727.6 ± 2 kg/m3
313.15 K, 17591 kPa | 728.8 ± 2 kg/m3
313.15 K, 17641 kPa | 728.9 ± 2 kg/m3
313.15 K, 17664 kPa | 728.8 ± 2 kg/m3
313.15 K, 17686 kPa | 728.8 ± 2 kg/m3
313.15 K, 17711 kPa | 728.9 ± 2 kg/m3
313.15 K, 17734 kPa | 728.9 ± 2 kg/m3
313.15 K, 20359 kPa | 730.9 ± 2 kg/m3
313.15 K, 20406 kPa | 730.9 ± 2 kg/m3
313.15 K, 20562 kPa | 730.8 ± 2 kg/m3
313.15 K, 20961 kPa | 731.3 ± 2 kg/m3
313.15 K, 20986 kPa | 731.2 ± 2 kg/m3
313.15 K, 21097 kPa | 731.3 ± 2 kg/m3
313.15 K, 21119 kPa | 731.3 ± 2 kg/m3
313.15 K, 21249 kPa | 731.5 ± 2 kg/m3
313.15 K, 21278 kPa | 731.5 ± 2 kg/m3
313.15 K, 21337 kPa | 731.5 ± 2 kg/m3
313.15 K, 21367 kPa | 731.5 ± 2 kg/m3
313.15 K, 21711 kPa | 731.8 ± 2 kg/m3
313.15 K, 21800 kPa | 731.8 ± 2 kg/m3
313.15 K, 22455 kPa | 732.2 ± 2 kg/m3
313.15 K, 22492 kPa | 732.4 ± 2 kg/m3
313.15 K, 22548 kPa | 732.4 ± 2 kg/m3
313.15 K, 22615 kPa | 732.4 ± 2 kg/m3
313.15 K, 22970 kPa | 732.6 ± 2 kg/m3
313.15 K, 22997 kPa | 732.7 ± 2 kg/m3
313.15 K, 23029 kPa | 732.6 ± 2 kg/m3
313.15 K, 23052 kPa | 732.6 ± 2 kg/m3
313.15 K, 23072 kPa | 732.7 ± 2 kg/m3
313.15 K, 23096 kPa | 732.7 ± 2 kg/m3
313.15 K, 23131 kPa | 732.8 ± 2 kg/m3
313.15 K, 23163 kPa | 732.8 ± 2 kg/m3
313.15 K, 23183 kPa | 732.9 ± 2 kg/m3
313.15 K, 23218 kPa | 732.9 ± 2 kg/m3
313.15 K, 23249 kPa | 732.9 ± 2 kg/m3
313.15 K, 23281 kPa | 733 ± 2 kg/m3
313.15 K, 23309 kPa | 732.8 ± 2 kg/m3
313.15 K, 23338 kPa | 733 ± 2 kg/m3
313.15 K, 23370 kPa | 733 ± 2 kg/m3
313.15 K, 25526 kPa | 734.6 ± 2.1 kg/m3
